The text below walks through data of paper PMC8259857, “Anti-tubercular activity and molecular docking studies of indolizine derivatives targeting mycobacterial InhA enzyme” (Journal of Enzyme Inhibition and Medicinal Chemistry, 2021).

For data set [1], the system named is susceptible H37Rv MTB strain (ATCC 25177). Nature of the data set: Resazurin Microplate Assay (REMA), whole-cell anti-tubercular activity against H37Rv. The note with it: for MIC: Mycobacterium tuberculosis, read-out: MIC H37Rv; for MIC H37Rv: H37Rv ATCC 25177, NA: not active at the concentration range (0.2–64 μg/mL). It counts as cell-based, Mycobacterium tuberculosis. On the technique in general: Resazurin is reduced to fluorescent resorufin, in cell work by metabolically active cells.

≈ marks a conversion by molar mass, not a printed value.

The term MIC denotes the smallest concentration in the dilution series that meets the test's criterion for growth inhibition. The term melting point denotes the temperature, or range, at which the solid turns liquid.

`CCOC(=O)c1c(C(=O)OCC)c2ccccn2c1C(=O)c1ccc([N+](=O)[O-])cc1` [Compound 4c, Diethyl-3-(4-nitrobenzoyl)indolizine-1,2-dicarboxylate] returned a melting point of 111 to 112 °C. Also, the MIC in data set [1] worked out at 32 µg/mL (≈ 78 µM).

Turning to `CCOC(=O)c1cc(C(=O)c2ccc(C#N)cc2)n2ccccc12` [Compound 2f], the “MIC H37Rv” value in data set [1] is recorded as “completely abolished the activity”.

Turning to `CCOC(=O)c1cc(C(=O)c2ccc([N+](=O)[O-])cc2)n2ccccc12` [Compound 2d], in data set [1], the MIC amounted to 8 µg/mL (≈ 23.6 µM).

The compound `CCOC(=O)c1c(C(=O)OCC)c2ccccn2c1C(=O)c1ccc(Cl)cc1` [Compound 4b, Diethyl-3-(4-chlorobenzoyl)indolizine-1,2-dicarboxylate] yielded a melting point of 137 to 138 °C. Also, the MIC in data set [1] came out at 8 µg/mL (≈ 20 µM).

For the compound `CCOC(=O)c1cc(C(=O)c2ccc(Cl)cc2)n2ccccc12` [Compound 2b], the minimal inhibitory concentration (MIC) in data set [1] was found to be 8 µg/mL (≈ 24.4 µM).

Take `CCOC(=O)c1cc(C(=O)c2ccc(C)cc2)n2ccccc12` [Compound 2e]: in data set [1], the “MIC H37Rv” value was “completely abolished the activity”.

In the case of `CO[C@H]1/C=C/O[C@@]2(C)Oc3c(C)c(O)c4c(O)c(c(/C=N/N5CCN(C)CC5)c(O)c4c3C2=O)NC(=O)/C(C)=C\C=C\[C@H](C)[C@H](O)[C@@H](C)[C@@H](O)[C@@H](C)[C@H](OC(C)=O)[C@@H]1C` [Rifampicin, reference compound], the minimal inhibitory concentration (MIC) in data set [1] was less than 1 µg/mL.

For `CCOC(=O)c1c(C(=O)OCC)c2ccccn2c1C(=O)c1ccc(F)cc1` [Compound 4a, Diethyl-3-(4-fluorobenzoyl)indolizine-1,2-dicarboxylate], the melting point lay in the range of 138 to 139 °C. Besides, the MIC in data set [1] amounted to 8 µg/mL (≈ 20.9 µM).

Turning to `CCOC(=O)c1c(C)c(C(=O)c2ccc(Cl)cc2)n2ccccc12` [Compound 3b], in data set [1], the MIC came out at 32 µg/mL (≈ 93.6 µM).

With `CCOC(=O)c1c(C)c(C(=O)c2ccc([N+](=O)[O-])cc2)n2ccccc12` [Compound 3d], the MIC in data set [1] was 8 µg/mL (≈ 22.7 µM).

`NNC(=O)c1ccncc1` [Isoniazid, reference compound]: in data set [1], the MIC was less than 0.2 µg/mL.

As to `CCOC(=O)c1cc(C(=O)c2ccc(Br)cc2)n2ccccc12` [Compound 2c], in data set [1], the minimum inhibitory concentration (MIC) was 32 µg/mL (≈ 86 µM).

`CCOC(=O)c1c(C)c(C(=O)c2ccc(F)cc2)n2ccccc12` [Compound 3a]: the minimal inhibitory concentration (MIC) in data set [1] amounted to 4 µg/mL (≈ 12.3 µM).
